From patent US8486647B2, “Neuropeptide release assay for sodium channels” (priority 2010, dated 2013)
Several values for one entry are separate records, joined by “and”; a condition that tells them apart may be missing. Equal entries are not always repeated.

Key:
Scn9a^3.1/3.1 DRG = experiment: CGRP release assay, Scn9a^3.1/3.1 DRG; assay type: cell-based, mouse
Scn9a^+/+ DRG = experiment: CGRP release assay, Scn9a^+/+ DRG; assay type: cell-based, mouse

Compound: CCN(CC)CC(=O)Nc1c(C)cccc1C [Lidocaine]
- inflammatory mix-induced release of CGRP (Scn9a^3.1/3.1 DRG): notably enhanced

Compound: NC1=N[C@H](O)[C@H]2[C@H]3O[C@]4(O)O[C@@H]([C@@H](O)[C@@]2(N1)[C@@H]4O)[C@]3(O)CO [TTX, Tetrodotoxin]
- inflammatory mix-induced release of CGRP (Scn9a^+/+ DRG): notably enhanced

Compound: ProTx-II [Pro-TXII]
- CGRP released (Scn9a^+/+ DRG): 186 ± 40 pg/mL and 126 ± 25 pg/mL
- inflammatory mix-induced release of CGRP (Scn9a^+/+ DRG): notably enhanced
